Results published in US20230322779A1 (priority 2020, published 2023).
Like-named read-outs stand apart in the source and are kept apart here.

Experiments:
Calu-3 cells = assay: Cell viability by nucleus counting in the Calu-3 dose-response assay; conditions: 0.0025 to 50 μM
[1] = tested on: SARS-CoV-2 (βCoV/KOR/KCDC03/2020); assay: Dose-response curve analysis by immunofluorescence, anti-SARS-CoV-2 activity in Calu-3 cells; type: cell-based
in vitro = conditions: human, A549-hACE2 cells, uninfected
SARS-CoV-2 B.1.1.7 = assay: SARS-CoV-2 in primary human bronchial cells at air liquid interface (HAEC-ALI), vRNA of apical wash by RT-qPCR; type: cell-based
[2] = tested on: SARS-CoV-2 nLUC reporter virus; assay: microbe, parasite or virus in culture; type: cell-based; conditions: for antiviral activity against SARS-CoV-2 reporter virus in A549-hACE2 cells: 10 to 0.002 μM
[3] = Severe acute respiratory syndrome coronavirus 2, 48 h

SMILES | toxicity in Calu-3 cells (Calu-3 cells) | antiviral activity against SARS-CoV-2 in Calu-3 cells [1] | CC50 at 48 h (in vitro) | inhibition of vRNA in apical wash fluid (SARS-CoV-2 B.1.1.7; 0.37 μM and lower, HAEC-ALI) | inhibition of vRNA in apical wash fluid (SARS-CoV-2 B.1.1.7; 1.1 μM, day 9, HAEC-ALI) | inhibition of vRNA in apical wash fluid (SARS-CoV-2 B.1.1.7; 3 μM, day 4-11, HAEC-ALI) | inhibition of vRNA in apical wash fluid (SARS-CoV-2 B.1.1.7; 10 μM, all timepoints (day 2-11), HAEC-ALI) | antiviral against SARS-CoV-2 (overall, HAEC-ALI) (SARS-CoV-2 B.1.1.7; primary human bronchial cells, air liquid interface) | IC50 [2] | antiviral activity against SARS-CoV-2 reporter virus in A549-hACE2 cells [2] | IC50 [2, 3] | inhibition of vRNA in apical wash fluid (SARS-CoV-2 B.1.1.7; 3 μM, all timepoints (day 2-11), HAEC-ALI)
FC(F)(F)c1cc(C(F)(F)F)c2ccc3nc(-c4nnco4)cn3c2n1 [Example 1, 2-[2,4-bis(trifluoromethyl)imidazo[1,2-a]1,8-naphthyridin-8-yl]-1,3,4-oxadiazole] | Neither compound showed toxicity | activity in the μM range | > 10 µM | No inhibition was observed | statistically significant inhibition | statistically significant inhibition | statistically significant inhibition | antiviral against SARS-CoV-2 when used in the μM range | 1.71 µM | has antiviral activity against SARS-CoV-2 reporter virus when used in the μM range | > 1 µM | 
FC(F)(F)c1nc(C(F)(F)F)c2ccc3nc(-c4nnco4)cn3c2n1 [Example 9, 2-(2,4-bis(trifluoromethyl)imidazo[1′2′:1,6]pyrido[2,3-d]pyrimidin-8-yl)-1,3,4-oxadiazole] | Neither compound showed toxicity | activity in the μM range | > 10 µM |  |  |  |  |  |  | has antiviral activity against SARS-CoV-2 reporter virus when used in the μM range | > 1 µM | 
N#C[C@@]1(c2ccc3c(N)ncnn23)O[C@H](CO)[C@@H](O)[C@H]1O [GS-441524, reference compound] |  |  |  |  |  |  |  |  |  |  |  | statistically significant inhibition
